According to patent US20060240095A1, “Pharmaceutical composition comprising a combination of metformin and a statin” (priority 2003, published 2006):
Read-outs that look alike come from different tables or passages of the source.

Experiments:
[1] = cited from earlier work
[2] = tested on: Zucker obese (fa/fa) rats; details: serum, lovastatin 1 mg/kg/day and/or metformin 50 mg/kg twice a day p.o.
[3] = tested on: C57BL/Ks J Rj-db (db/db) mice; assay: Serum biomarkers in male db/db mice, simvastatin, metformin and combination per os for 5 days; assay type: in vivo, mouse; details: oral once daily
Protocol: Male 12 weeks old C57BL/Ks J Rj-db (db/db) mice (Janvier, France), weighing in the target range of 30 to 50 g, were used in the study. They were housed 5 per cage in a temperature (19.5-24.5° C.) and relative humidity (45-65%) controlled room with a 12-h light/dark cycle, with ad libitum access to filtered tap-water and irradiated pelleted laboratory chow (ref. A04, SAFE, France) throughout the study. After acclimatization, they were randomized into groups of 10 according to homogeneous glycaemia:
Group 2: Metformin 150 mg/kg
The mice were given the treatment orally once daily for 5 consecutive days at constant time.

ZUCKER fa/fa rats = assay: Serum biomarkers in Zucker obese (fa/fa) rats, simvastatin, metformin and combination per os for 5 days; details: oral
[4] = cited from earlier work; remark: listed apart in the source
[5] = pH of 7.0; cited from earlier work
[6] = water (distilled water for atorvastatin), in words
[7] = T0 (three days before beginning of treatment)
[8] = T5 (five days after beginning of treatment)
[9] = T0 (three days before treatment), metformin 150 mg/kg and/or simvastatin 30 mg/kg
[10] = T5 (five days after beginning of treatment), metformin 150 mg/kg and/or simvastatin 30 mg/kg
[11] = T0 (three days before treatment), simvastatin 0.5 mg/kg and/or metformin 50 mg/kg twice a day
[12] = T5 (five days after beginning of treatment), simvastatin 0.5 mg/kg and/or metformin 50 mg/kg twice a day
[13] = T0 (three days before treatment), simvastatin 300 mg/kg alone or with metformin 150 mg/kg
[14] = T0 (three days before treatment), simvastatin alone or with metformin 150 mg/kg
[15] = T5 (five days after beginning of treatment), simvastatin 300 mg/kg alone or with metformin 150 mg/kg
[16] = T5 (five days after beginning of treatment), simvastatin alone or with metformin 150 mg/kg
[17] = T0 (three days before treatment), simvastatin 1 mg/kg alone or with metformin 50 mg/kg twice a day
[18] = T5 (five days after beginning of treatment), simvastatin 1 mg/kg alone or with metformin 50 mg/kg twice a day

## CC[C@H](C)C(=O)O[C@H]1C[C@@H](C)C=C2C=C[C@H](C)[C@H](CC[C@@H]3C[C@@H](O)CC(=O)O3)[C@H]21 [Lovastatin]
[1]; [6]
  solubility in water: insoluble
[2]; [7]
  Glucose: 7.88 mM
  HDL C: 2.00 mM
  Insulin: 0.35 nM
  Total Cholesterol: 2.38 mM
  Triglycerides: 4.18 mM
[2]; [8]
  Glucose: 8.21 mM
  HDL C: 2.16 mM
  Insulin: 0.39 nM
  Total Cholesterol: 2.54 mM
  Triglycerides: 4.79 mM

## CN(C)C(=N)N=C(N)N [Metformin]
[3]; [9]
  Glucose: 37.00 mM
  Insulin: 4.60 nM
  NEFA: 0.654 mM
  Total Cholesterol: 3.07 mM
  Triglycerides: 1.30 mM
[3]; [10]
  Glucose: 23.03 mM
  Insulin: 2.82 nM
  NEFA: 0.798 mM
  Total Cholesterol: 3.63 mM
  Triglycerides: 1.34 mM
ZUCKER fa/fa rats; [11]
  Glucose: 6.69 mM
  HDL C: 2.30 mM
  Insulin: 0.63 nM
  Total Cholesterol: 2.47 mM
  Triglycerides: 4.18 mM
ZUCKER fa/fa rats; [12]
  Glucose: 9.23 mM
  HDL C: 2.16 mM
  Insulin: 0.71 nM
  Total Cholesterol: 2.32 mM
  Triglycerides: 5.12 mM
[2]; [7]
  Glucose: 8.27 mM
  HDL C: 2.08 mM
  Insulin: 0.34 nM
  Total Cholesterol: 2.55 mM
  Triglycerides: 4.08 mM
[2]; [8]
  Glucose: 7.73 mM
  HDL C: 2.25 mM
  Insulin: 0.38 nM
  Total Cholesterol: 2.72 mM
  Triglycerides: 5.17 mM

## CC(C)n1c(/C=C/C(O)CC(O)CC(=O)O)c(-c2ccc(F)cc2)c2ccccc21 (stereo not drawn) [Fluvastatin]
[1]; [6]
  solubility in water: soluble
[4]; following oral administration
  time to peak concentrations: less than 1 hour

## CC[C@H](C)C(=O)O[C@H]1C[C@H](O)C=C2C=C[C@H](C)[C@H](CC[C@@H](O)C[C@@H](O)CC(=O)O)[C@H]21 [Pravastatin]
[1]; methanol and water
  solubility in water: > 300 mg/mL
[5]
  partition coefficient (octanol/water): 0.59

## COCc1c(C(C)C)nc(C(C)C)c(/C=C/[C@@H](O)C[C@@H](O)CC(=O)O)c1-c1ccc(F)cc1 [Cerivastatin]
[1]; [6]
  solubility in water: soluble
[4]; oral administration with food
  effect of food on absorption: not sensitive to a food effect

## CCC(C)(C)C(=O)O[C@H]1C[C@@H](C)C=C2C=C[C@H](C)[C@H](CC[C@@H]3C[C@@H](O)CC(=O)O3)[C@H]21 [Simvastatin]
[3]; [9]
  Glucose: 36.27 mM
  Insulin: 4.60 nM
  NEFA: 0.646 mM
  Total Cholesterol: 2.96 mM
  Triglycerides: 1.34 mM
[3]; [13]
  Glucose: 36.91 mM
  Total Cholesterol: 2.95 mM
[3]; [14]
  Insulin: 4.86 nM
  NEFA: 0.639 mM
  Triglycerides: 1.44 mM
[3]; [10]
  Glucose: 25.95 mM
  Insulin: 2.74 nM
  NEFA: 0.897 mM
  Total Cholesterol: 3.33 mM
  Triglycerides: 1.49 mM
[3]; [15]
  Glucose: 21.18 mM
  Total Cholesterol: 2.87 mM
[3]; [16]
  Insulin: 2.37 nM
  NEFA: 0.785 mM
  Triglycerides: 0.78 mM
ZUCKER fa/fa rats; [11]
  Glucose: 6.63 mM
  HDL C: 2.32 mM
  Insulin: 0.55 nM
  Total Cholesterol: 2.46 mM
  Triglycerides: 4.61 mM
ZUCKER fa/fa rats; [17]
  Glucose: 7.08 mM
  HDL C: 2.34 mM
  Insulin: 0.63 nM
  Total Cholesterol: 2.48 mM
  Triglycerides: 4.67 mM
ZUCKER fa/fa rats; [12]
  Glucose: 9.44 mM
  HDL C: 2.32 mM
  Insulin: 0.76 nM
  Total Cholesterol: 2.46 mM
  Triglycerides: 5.23 mM
ZUCKER fa/fa rats; [18]
  Glucose: 8.35 mM
  HDL C: 2.43 mM
  Insulin: 0.67 nM
  Total Cholesterol: 2.60 mM
  Triglycerides: 5.89 mM
